The target of one data set is LCMV ExoN (Mammarenavirus choriomeningitidis, UniProt P09992). The data set can be described thus: biochemical. The arrangement: species or system Lymphocytic Choriomeningitis virus.
The target of a further data set is MACV ExoN (Mammarenavirus machupoense, UniProt P26578). Briefly: biochemical. The arrangement: species or system Machupo virus.
Data set [1] deals with SARS-CoV-2 ExoN nsp14/nsp10 complex (Severe acute respiratory syndrome coronavirus 2, UniProt P0DTD1). Briefly: biochemical. The note with it: read-out: % inhibition of ExoN at 5 μM.
The test system of the next data set is LCMV minigenome. In kind it is cell-based.
The test system of data set [2] is SARS-CoV-2 in VeroE6 TMPRSS2 cells. The data set can be described thus: microbe, parasite or virus in culture. In kind it is cell-based.
Data set [3] concerns LCMV, MACV and SARS-CoV-2 ExoN. In kind it is biochemical.
Another data set can be described thus: in vitro. Conditions: african green monkey, veroe6 tmprss2 cells.
The mark [4] stands for this setting: read-out: % inhibition of ExoN at 5 μM.
Where [5] appears, read: Severe acute respiratory syndrome coronavirus 2, VeroE6/TMPRSS2.

Several values for one entry are separate records, joined by “and”; a condition that tells them apart may be missing. Equal entries are not always repeated. Where two headings read alike, the source gives them in different places.

Chain of LCMV ExoN (P09992 357-558 limits assumed): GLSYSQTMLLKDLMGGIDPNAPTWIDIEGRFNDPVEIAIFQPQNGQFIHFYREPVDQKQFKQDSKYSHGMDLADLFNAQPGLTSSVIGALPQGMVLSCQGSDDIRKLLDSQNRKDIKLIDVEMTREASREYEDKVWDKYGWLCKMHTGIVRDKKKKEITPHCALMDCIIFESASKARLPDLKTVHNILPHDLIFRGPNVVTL
Chain of MACV ExoN (P26578 355-564 limits assumed): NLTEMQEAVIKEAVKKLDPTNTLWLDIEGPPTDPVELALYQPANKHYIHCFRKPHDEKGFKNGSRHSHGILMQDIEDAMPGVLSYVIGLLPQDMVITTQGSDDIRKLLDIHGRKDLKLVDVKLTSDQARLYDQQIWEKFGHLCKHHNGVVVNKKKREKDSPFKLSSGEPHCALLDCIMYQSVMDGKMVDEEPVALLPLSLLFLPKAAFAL

For orientation: IC50 means the midpoint of a concentration-inhibition curve. Low values mean greater potency in that assay, high ones weaker potency in that assay. For orientation: inhibition means the drop in the measured response relative to a control, in per cent. In general, EC50 refers to the concentration giving half of the maximal effect. A low value points to a more potent agent. In general, CC50 refers to the concentration giving 50% cytotoxicity. A high value points to better tolerance by the cells. For `O=C(O)C1=CC(=C(c2ccc(O)c(C(=O)O)c2)c2ccc(O)c(C(=O)O)c2)C=CC1=O` [Compound 40, Aurintricarboxyclic acid], the IC50 is 7.05 µM and 7.1 µM against LCMV ExoN (IC50); 5.57 µM and 5.6 µM against MACV ExoN (IC50). Moreover, the inhibition at 5 µM at LCMV ExoN (setting [4]) was 52%; at MACV ExoN (setting [4]) it was 39%; in data set [1] it was 23%. Also, in the data set with LCMV minigenome, the “antiviral effect” value is given as “no antiviral effect”. Besides, the half-maximal effective concentration (EC50) in data set [2] came to 27 µM; in data set [2] (setting [5]), 27.2 ± 20.7 µM. In data set [3], the “% inhibition of ExoN at 20 μM, all ExoN” value stood at 100%. This compound also showed a CC50 at 48 h in “in vitro” of more than 50 µM.
`CCC(CC)COC(=O)[C@H](C)N[P@](=O)(OC[C@H]1O[C@@](C#N)(c2ccc3c(N)ncnn23)[C@H](O)[C@@H]1O)Oc1ccccc1` [Remdesivir] returned a concentration for a half-maximal effect (EC50) in data set [2] (setting [5]) of 1.5 ± 1.1 µM.

The values are drawn from article PMC9212739 (Antiviral Research, 2022).
